PMC9611727, “Optimization of a Novel Mandelamide-Derived Pyrrolopyrimidine Series of PERK Inhibitors” (Pharmaceutics, 2022)

Assays:
Assay in all cases: scanMAX kinase panel
Assay type in all cases: binding
Conditions in all cases: read-out: % Control; for remaining binding at 1 µM: 1000 nM
[1] = target: T1, FLT3(D835H) (Homo sapiens, UniProt P36888, D835H)
T1 construct: purchased DiscoverX scanMAX
T1 sequence (P36888 27-993 D835H): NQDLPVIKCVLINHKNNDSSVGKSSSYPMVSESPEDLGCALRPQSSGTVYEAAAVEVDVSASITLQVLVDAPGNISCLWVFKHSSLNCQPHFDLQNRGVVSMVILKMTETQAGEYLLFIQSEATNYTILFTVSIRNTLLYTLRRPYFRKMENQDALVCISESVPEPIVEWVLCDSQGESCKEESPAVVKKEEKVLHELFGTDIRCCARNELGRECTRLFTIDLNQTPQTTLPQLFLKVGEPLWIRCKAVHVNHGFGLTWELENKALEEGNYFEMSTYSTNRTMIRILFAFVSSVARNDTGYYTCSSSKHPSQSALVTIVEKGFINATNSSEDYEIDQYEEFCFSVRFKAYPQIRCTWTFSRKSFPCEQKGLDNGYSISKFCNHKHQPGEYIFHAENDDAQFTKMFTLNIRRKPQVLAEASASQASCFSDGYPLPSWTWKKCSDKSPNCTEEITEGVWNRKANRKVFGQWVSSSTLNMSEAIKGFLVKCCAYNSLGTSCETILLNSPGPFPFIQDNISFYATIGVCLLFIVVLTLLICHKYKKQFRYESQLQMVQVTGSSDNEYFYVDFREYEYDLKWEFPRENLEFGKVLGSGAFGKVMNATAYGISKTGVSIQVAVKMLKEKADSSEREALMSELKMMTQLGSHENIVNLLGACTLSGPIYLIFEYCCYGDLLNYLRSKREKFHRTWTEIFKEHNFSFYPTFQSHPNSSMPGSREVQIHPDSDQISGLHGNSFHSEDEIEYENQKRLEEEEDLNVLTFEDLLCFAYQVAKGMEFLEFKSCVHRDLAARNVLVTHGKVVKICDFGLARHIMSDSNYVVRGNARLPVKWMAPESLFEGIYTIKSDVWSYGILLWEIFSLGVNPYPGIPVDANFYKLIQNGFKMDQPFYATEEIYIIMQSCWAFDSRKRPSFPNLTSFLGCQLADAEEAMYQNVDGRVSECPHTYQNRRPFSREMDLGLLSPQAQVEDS
Source text: (§1) Supplemental Table S2. scanMAXSM Kinome Assay Results. Complete tabulated data of all 468 kinases from the panel, including
(§2) 403 wild-type and 65 mutant isoforms. […] Cmpd 11 and Cmpd 24

[2] = target: T2, KIT (Homo sapiens, UniProt P10721)
T2 construct: purchased DiscoverX scanMAX
T2 sequence (P10721 26-976): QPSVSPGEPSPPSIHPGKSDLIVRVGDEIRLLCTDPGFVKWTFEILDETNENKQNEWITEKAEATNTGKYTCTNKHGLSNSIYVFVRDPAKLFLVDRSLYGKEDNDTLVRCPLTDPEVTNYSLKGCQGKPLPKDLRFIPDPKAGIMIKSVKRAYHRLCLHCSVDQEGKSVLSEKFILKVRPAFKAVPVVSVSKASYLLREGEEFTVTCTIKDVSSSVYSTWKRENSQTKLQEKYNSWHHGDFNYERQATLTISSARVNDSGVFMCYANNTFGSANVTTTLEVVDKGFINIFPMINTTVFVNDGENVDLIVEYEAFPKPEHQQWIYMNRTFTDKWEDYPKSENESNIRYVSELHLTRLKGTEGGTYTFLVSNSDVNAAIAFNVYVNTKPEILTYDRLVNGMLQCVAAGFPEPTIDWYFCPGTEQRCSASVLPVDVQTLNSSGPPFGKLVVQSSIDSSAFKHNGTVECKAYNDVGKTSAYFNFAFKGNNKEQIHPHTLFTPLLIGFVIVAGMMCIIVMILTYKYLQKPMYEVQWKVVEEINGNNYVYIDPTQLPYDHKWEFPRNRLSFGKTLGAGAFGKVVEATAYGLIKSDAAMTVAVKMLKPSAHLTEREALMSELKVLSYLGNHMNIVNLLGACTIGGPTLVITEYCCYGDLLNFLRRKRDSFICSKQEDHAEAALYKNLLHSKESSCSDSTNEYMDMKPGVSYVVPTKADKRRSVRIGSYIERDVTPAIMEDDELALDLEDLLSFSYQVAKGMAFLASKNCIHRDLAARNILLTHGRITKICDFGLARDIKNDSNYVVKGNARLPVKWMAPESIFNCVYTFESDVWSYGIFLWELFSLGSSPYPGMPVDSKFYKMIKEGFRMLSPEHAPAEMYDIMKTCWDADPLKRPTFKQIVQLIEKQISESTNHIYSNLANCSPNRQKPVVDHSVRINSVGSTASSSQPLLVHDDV
Source text: as §1, §2

[3] = target: T3, MAP3K15 (Homo sapiens, UniProt Q6ZN16)
T3 construct: purchased DiscoverX scanMAX
T3 sequence (Q6ZN16 1-1313): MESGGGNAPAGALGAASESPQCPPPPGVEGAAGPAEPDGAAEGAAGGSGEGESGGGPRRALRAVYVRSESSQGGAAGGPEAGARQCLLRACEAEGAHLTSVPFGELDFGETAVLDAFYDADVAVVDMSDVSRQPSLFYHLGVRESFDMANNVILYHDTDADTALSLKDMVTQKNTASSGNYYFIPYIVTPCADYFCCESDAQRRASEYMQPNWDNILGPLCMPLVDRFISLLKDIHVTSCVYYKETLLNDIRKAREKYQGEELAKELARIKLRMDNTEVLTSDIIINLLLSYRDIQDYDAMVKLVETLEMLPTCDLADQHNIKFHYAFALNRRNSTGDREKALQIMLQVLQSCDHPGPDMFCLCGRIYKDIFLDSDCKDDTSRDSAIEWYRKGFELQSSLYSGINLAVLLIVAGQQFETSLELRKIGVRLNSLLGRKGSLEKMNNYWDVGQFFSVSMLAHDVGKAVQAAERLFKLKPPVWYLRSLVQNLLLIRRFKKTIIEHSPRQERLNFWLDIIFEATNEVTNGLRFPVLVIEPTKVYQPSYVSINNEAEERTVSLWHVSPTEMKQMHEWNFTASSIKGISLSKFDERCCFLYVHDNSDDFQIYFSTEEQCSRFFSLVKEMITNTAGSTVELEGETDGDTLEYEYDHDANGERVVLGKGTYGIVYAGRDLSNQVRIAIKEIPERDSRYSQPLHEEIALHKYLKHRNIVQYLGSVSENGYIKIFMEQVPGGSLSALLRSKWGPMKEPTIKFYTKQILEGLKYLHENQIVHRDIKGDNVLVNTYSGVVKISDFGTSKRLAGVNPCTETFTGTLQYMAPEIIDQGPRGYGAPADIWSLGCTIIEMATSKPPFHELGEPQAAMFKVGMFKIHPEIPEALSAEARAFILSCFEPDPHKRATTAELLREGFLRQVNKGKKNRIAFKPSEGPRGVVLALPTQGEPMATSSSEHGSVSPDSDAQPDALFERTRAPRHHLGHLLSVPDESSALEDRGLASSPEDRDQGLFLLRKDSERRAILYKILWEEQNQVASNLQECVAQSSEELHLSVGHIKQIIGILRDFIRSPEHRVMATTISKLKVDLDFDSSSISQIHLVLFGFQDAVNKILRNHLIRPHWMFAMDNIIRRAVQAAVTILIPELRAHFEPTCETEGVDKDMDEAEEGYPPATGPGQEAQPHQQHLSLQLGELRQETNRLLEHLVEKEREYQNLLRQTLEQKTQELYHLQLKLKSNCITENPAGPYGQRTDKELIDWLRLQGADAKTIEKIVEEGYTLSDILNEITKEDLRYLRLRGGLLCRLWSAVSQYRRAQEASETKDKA
Source text: as §1, §2

[4] = target: T4, PAK3 (Homo sapiens, UniProt O75914)
T4 construct: purchased DiscoverX scanMAX
T4 sequence (O75914 whole entry): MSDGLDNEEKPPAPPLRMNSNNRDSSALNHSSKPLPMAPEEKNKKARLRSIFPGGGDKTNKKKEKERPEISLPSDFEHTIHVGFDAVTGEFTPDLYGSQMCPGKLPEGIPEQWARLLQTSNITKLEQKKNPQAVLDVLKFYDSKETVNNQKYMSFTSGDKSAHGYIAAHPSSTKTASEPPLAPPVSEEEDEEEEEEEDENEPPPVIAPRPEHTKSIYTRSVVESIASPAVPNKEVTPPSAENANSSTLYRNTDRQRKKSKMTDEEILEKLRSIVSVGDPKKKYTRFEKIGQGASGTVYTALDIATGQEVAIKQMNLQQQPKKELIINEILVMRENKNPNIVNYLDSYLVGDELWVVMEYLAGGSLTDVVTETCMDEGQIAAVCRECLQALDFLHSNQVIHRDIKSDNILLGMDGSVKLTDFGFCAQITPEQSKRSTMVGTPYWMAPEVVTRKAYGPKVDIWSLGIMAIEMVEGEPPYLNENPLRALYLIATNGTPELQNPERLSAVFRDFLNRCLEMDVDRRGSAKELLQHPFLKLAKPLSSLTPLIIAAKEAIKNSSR
Source text: as §1, §2

**Q.** What does the source list for `Cc1cc(NC(=O)[C@H](O)c2cccc(F)c2)ccc1-c1cn(C)c2ncnc(N)c12` [Compound 11, (R)-N-(4-(4-amino-7-methyl-7H-pyrrolo[2,3-d]pyrimidin-5-yl)-3-methylphenyl)-2-(3-fluorophenyl)-2-hydroxy acetamide]?
**A.** remaining binding at 1 µM [1]: 33%; remaining binding at 1 µM [2]: 38%; remaining binding at 1 µM [3]: 29%; remaining binding at 1 µM [4]: 36%

**Q.** What does the source list for `Cc1nc(N)c2c(-c3ccc(NC(=O)[C@H](O)c4cccc(F)c4)cc3C)cn(C)c2n1` [Compound 24]?
**A.** remaining binding at 1 µM [1]: 98%; remaining binding at 1 µM [2]: 100%; remaining binding at 1 µM [3]: 82%; remaining binding at 1 µM [4]: 100%

**Q.** Which remaining binding at 0.1 µM ([1]; 100 nM) does the source give for `Cc1nc(N)c2c(-c3ccc(NC(=O)[C@H](O)c4cccc(C(F)(F)F)c4)cc3C)cn(C)c2n1` [Compound 26] here?
**A.** 85%

**Q.** And the remaining binding at 1 µM [1]?
**A.** 25%

**Q.** And the remaining binding at 0.1 µM ([2]; 100 nM)?
**A.** 97%

**Q.** What about the remaining binding at 1 µM [2] of the same compound?
**A.** 0.65%

**Q.** What about the remaining binding at 0.1 µM ([3]; 100 nM) of the same compound?
**A.** 100%

**Q.** What about the remaining binding at 1 µM [3] of the same compound?
**A.** 99%

**Q.** What about the remaining binding at 0.1 µM ([4]; 100 nM) of the same compound?
**A.** 97%

**Q.** And the remaining binding at 1 µM [4]?
**A.** 31%
